Patent publication US9624200B2, “Therapeutic piperazines” (DART NEUROSCIENCE (CAYMAN) LTD., priority 2006, dated 2017)
pIC50: −log10 of the molar value.

tested on: PDE4 from human U-937 cells; assay: PDE4 Inhibition Assay; assay type: biochemical; settings: 1 μM cAMP, [3H]-cAMP, read-out: Potency Class (Inhibitory Concentration) in the PDE4 assay
In short: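 U-937-derived PDE4 (2 μg/ml) was preincubated with compound in Tris-HCl pH 7.5 for 15 min at 25° C. It then reacted 20 min with cAMP plus [^3H]-cAMP. [^3H]-AMP was converted to [^3H]-adenosine by nucleotidase, resin-separated and counted; IC50 came from percent inhibition.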

`COc1ccc(N2CCN(C(=O)Cc3n[nH]c(N)n3)[C@@H](Cc3ccccc3)C2)cc1OC1CCC1` [Compound 339, (S)-2-(5-amino-1H-1,2,4-triazol-3-yl)-1-(2-benzyl-4-(3-cyclobutoxy-4-methoxyphenyl)piperazin-1-yl)ethanone] and `Cc1nc(CC(=O)N2CCN(c3ccc(OC(F)F)c(OC4CCC4)c3)C[C@@H]2Cc2ccccc2)n[nH]1` [Compound 345, (S)-1-(2-benzyl-4-(3-cyclobutoxy-4-(difluoromethoxy)phenyl)piperazin-1-yl)-2-(5-methyl-1H-1,2,4-triazol-3-yl)ethanone] cannot be ordered by pIC50: > 6.70 for the first, > 6.70 for the second.

Compared with `COc1ccc(N2CCN(C(=O)Cc3ncccn3)[C@@H](Cc3ccccc3)C2)cc1OC1CCC1` [Compound 340, (S)-1-(2-benzyl-4-(3-cyclobutoxy-4-methoxyphenyl)piperazin-1-yl)-2-(pyrimidin-2-yl)ethanone], `O=C(Cc1ncccn1)N1CCN(c2ccc(OC(F)F)c(OC3CCC3)c2)C[C@@H]1Cc1ccccc1` [Compound 356, (S)-1-(2-benzyl-4-(3-cyclobutoxy-4-(difluoromethoxy)phenyl)piperazin-1-yl)-2-(pyrimidin-2-yl)ethanone] is lower in pIC50: > 6.70 for the first, 6.00 to 6.70 for the second. The first is the more potent here.

`COc1ccc(N2CCN(C(=O)Cc3ccccn3)[C@@H](Cc3ccccc3)C2)cc1OC(C)C` [Compound 341, (S)-1-(2-benzyl-4-(3-isopropoxy-4-methoxyphenyl)piperazin-1-yl)-2-(pyridin-2-yl)ethanone] and `COc1ccc(N2CCN(C(=O)Cc3ncccn3)[C@@H](Cc3ccccc3)C2)cc1OC(C)C` [Compound 343, (S)-1-(2-benzyl-4-(3-isopropoxy-4-methoxyphenyl)piperazin-1-yl)-2-(pyrimidin-2-yl)ethanone] fall in the same range of pIC50: 6.00 to 6.70 for the first, 6.00 to 6.70 for the second.

Compared with `COc1ccc(N2CCN(C(=O)Cc3ccccn3)[C@@H](Cc3ccccc3)C2)cc1OC1CCC1` [Compound 342, (S)-1-(2-benzyl-4-(3-cyclobutoxy-4-methoxyphenyl)piperazin-1-yl)-2-(pyridin-2-yl)ethanone], `COc1ccc(N2CCN(C(=O)CN)[C@@H](Cc3ccccc3)C2)cc1OC1CCC1` [Compound 349, (S)-2-amino-1-(2-benzyl-4-(3-cyclobutoxy-4-methoxyphenyl)piperazin-1-yl)ethanone] is lower in pIC50: > 6.70 for the first, < 6.00 for the second. The first is the more potent here.

Compared with `O=C(Cc1c[nH]cn1)N1CCN(c2ccc(OC(F)F)c(OC3CCC3)c2)C[C@@H]1Cc1ccccc1` [Compound 344, (S)-1-(2-benzyl-4-(3-cyclobutoxy-4-(difluoromethoxy)phenyl)piperazin-1-yl)-2-(1H-imidazol-4-yl)ethanone], `COc1ccc(N2CCN(C(=O)Cc3c[nH]cn3)[C@@H](Cc3ccccc3)C2)cc1OC(F)F` [Compound 347, (S)-1-(2-benzyl-4-(3-(difluoromethoxy)-4-methoxyphenyl)piperazin-1-yl)-2-(1H-imidazol-4-yl)ethanone] is lower in pIC50: > 6.70 for the first, < 6.00 for the second.

First: COc1ccc(N2CCN(C(=O)Cc3n[nH]c(C)n3)[C@@H](Cc3ccccc3)C2)cc1OC(F)F [Compound 346, (S)-1-(2-benzyl-4-(3-(difluoromethoxy)-4-methoxyphenyl)piperazin-1-yl)-2-(5-methyl-1H-1,2,4-triazol-3-yl)ethanone]
Second: COc1ccc(N2CCN(C(=O)Cc3n[nH]c(C)n3)[C@@H](CC(C)C)C2)cc1OC(C)C [Compound 377, (S)-1-(2-isobutyl-4-(3-isopropoxy-4-methoxyphenyl)piperazin-1-yl)-2-(5-methyl-1H-1,2,4-triazol-3-yl)ethanone]
The pIC50 of the first is higher: > 6.70 for the first, 6.00 to 6.70 for the second. The first is the more potent here.

`CNCCC(=O)N1CCN(c2ccc(OC)c(OC3CCC3)c2)C[C@@H]1Cc1ccccc1` [Compound 348, (S)-1-(2-benzyl-4-(3-cyclobutoxy-4-methoxyphenyl)piperazin-1-yl)-3-(methylamino)propan-1-one] and `CNCC(=O)N1CCN(c2ccc(OC)c(OC3CCC3)c2)C[C@@H]1Cc1ccccc1` [Compound 350, (S)-1-(2-benzyl-4-(3-cyclobutoxy-4-methoxyphenyl)piperazin-1-yl)-2-(methylamino)ethanone] cannot be ordered by pIC50: < 6.00 for the first, < 6.00 for the second.

First: CCc1nn(C2CCC2)c2cc(N3CCN(C(=O)CN)[C@@H](Cc4ccccc4)C3)ccc12 [Compound 351, (S)-2-amino-1-(2-benzyl-4-(1-cyclobutyl-3-ethyl-1H-indazol-6-yl)piperazin-1-yl)ethanone]
Second: CCc1nn(C2CCC2)c2cc(N3CCN(C(=O)Cc4n[nH]c(N)n4)[C@@H](Cc4ccccc4)C3)ccc12 [Compound 355, (S)-2-(5-amino-1H-1,2,4-triazol-3-yl)-1-(2-benzyl-4-(1-cyclobutyl-3-ethyl-1H-indazol-6-yl)piperazin-1-yl)ethanone]
The pIC50 of the first is lower: < 6.00 for the first, > 6.70 for the second.

`CCc1nn(C2CCC2)c2cc(N3CCN(C(=O)Cc4ccccn4)[C@@H](Cc4ccccc4)C3)ccc12` [Compound 352, (S)-1-(2-benzyl-4-(1-cyclobutyl-3-ethyl-1H-indazol-6-yl)piperazin-1-yl)-2-(pyridin-2-yl)ethanone] and `CCc1nn(C2CCC2)c2cc(N3CCN(C(=O)Cc4ncccn4)[C@@H](Cc4ccccc4)C3)ccc12` [Compound 353, (S)-1-(2-benzyl-4-(1-cyclobutyl-3-ethyl-1H-indazol-6-yl)piperazin-1-yl)-2-(pyrimidin-2-yl)ethanone] cannot be ordered by pIC50: < 6.00 for the first, < 6.00 for the second.

`COc1ccc(N2CCN(Cc3sc(C)nc3C)[C@@H](Cc3ccccc3)C2)cc1OC1CCCC1` [Compound 359, (S)-5-((2-benzyl-4-(3-(cyclopentyloxy)-4-methoxyphenyl)piperazin-1-yl)methyl)-2,4-dimethylthiazole] and `COc1ccc(N2CCN(Cc3cccc(O)c3)[C@@H](Cc3ccccc3)C2)cc1OC1CCCC1` [Compound 361] cannot be ordered by pIC50: < 6.00 for the first, < 6.00 for the second.

`COc1ccc(N2CCN(C(=O)c3ccc(CO)cc3)[C@@H](Cc3ccccc3)C2)cc1OC1CCCC1` [Compound 360, (S)-(2-benzyl-4-(3-(cyclopentyloxy)-4-methoxyphenyl)piperazin-1-yl)(4-(hydroxymethyl)phenyl)methanone] and `COc1ccc(N2CCN(Cc3ccc(O)cc3)[C@@H](Cc3ccccc3)C2)cc1OC1CCCC1` [Compound 362, (S)-4-((2-benzyl-4-(3-(cyclopentyloxy)-4-methoxyphenyl)piperazin-1-yl)methyl)phenol] cannot be ordered by pIC50: < 6.00 for the first, < 6.00 for the second.

`COc1ccc(N2CCN(C(=O)Cc3c[nH]cn3)[C@@H](CC(C)C)C2)cc1OC1CCCC1` [Compound 364, (S)-1-(4-(3-(cyclopentyloxy)-4-methoxyphenyl)-2-isobutylpiperazin-1-yl)-2-(1H-imidazol-4-yl)ethanone] and `COc1ccc(N2CCN(C(=O)Cc3c[nH]cn3)[C@@H](CC(C)C)C2)cc1OC1CCC1` [Compound 367, (S)-1-(4-(3-cyclobutoxy-4-methoxyphenyl)-2-isobutylpiperazin-1-yl)-2-(1H-imidazol-4-yl)ethanone] cannot be ordered by pIC50: > 6.70 for the first, > 6.70 for the second.

`CC(C)C[C@H]1CN(c2ccc(OC(F)F)c(OCC3CC3)c2)CCN1C(=O)Cc1c[nH]cn1` [Compound 365, (S)-1-(4-(3-(cyclopropylmethoxy)-4-(difluoromethoxy)phenyl)-2-isobutylpiperazin-1-yl)-2-(1H-imidazol-4-yl)ethanone] and `CC(C)C[C@H]1CN(c2ccc(OC(F)F)c(OC3CCCC3)c2)CCN1C(=O)Cc1c[nH]cn1` [Compound 366, (S)-1-(4-(3-(cyclopentyloxy)-4-(difluoromethoxy)phenyl)-2-isobutylpiperazin-1-yl)-2-(1H-imidazol-4-yl)ethanone] fall in the same range of pIC50: 6.00 to 6.70 for the first, 6.00 to 6.70 for the second.

First: CCOC(=O)CC(=O)N1CCN(c2ccc(OC)c(OC3CCCC3)c2)C[C@@H]1CC(C)C [Compound 368, (S)-ethyl 3-(4-(3-(cyclopentyloxy)-4-methoxyphenyl)-2-isobutylpiperazin-1-yl)-3-oxopropanoate]
Second: COc1ccc(N2CCN(C(=O)Cc3cn(C)cn3)[C@@H](CC(C)C)C2)cc1OC1CCC1 [Compound 369, (S)-1-(4-(3-cyclobutoxy-4-methoxyphenyl)-2-isobutylpiperazin-1-yl)-2-(1-methyl-1H-imidazol-4-yl)ethanone]
The pIC50 of the first is lower: < 6.00 for the first, 6.00 to 6.70 for the second. The second is the more potent here.

`Cc1nc(CC(=O)N2CCN(c3ccc(OC(F)F)c(OCC4CC4)c3)C[C@@H]2CC(C)C)n[nH]1` [Compound 373, (S)-1-(4-(3-(cyclopropylmethoxy)-4-(difluoromethoxy)phenyl)-2-isobutylpiperazin-1-yl)-2-(5-methyl-1-H-1,2,4-triazol-3-yl)ethanone] and `Cc1nc(CC(=O)N2CCN(c3ccc(OC(F)F)c(OC4CCCC4)c3)C[C@@H]2CC(C)C)n[nH]1` [Compound 374, (S)-1-(4-(3-(cyclopentyloxy)-4-(difluoromethoxy)phenyl)-2-isobutylpiperazin-1-yl)-2-(5-methyl-1H-1,2,4-triazol-3-yl)ethanone] cannot be ordered by pIC50: > 6.70 for the first, > 6.70 for the second.

Compared with `COc1ccc(N2CCN(C(=O)Cc3c[nH]cn3)[C@@H](CC(C)C)C2)cc1OC(C)C` [Compound 378, (S)-2-(1H-imidazol-4-yl)-1-(2-isobutyl-4-(3-isopropoxy-4-methoxyphenyl)piperazin-1-yl)ethanone], `CCc1nn(C(C)C)c2cc(N3CCN(C(=O)Cc4nc(C)n[nH]4)[C@@H](Cc4ccccc4)C3)ccc12` [Compound 381, (S)-1-(2-benzyl-4-(3-ethyl-1-isopropyl-1H-indazol-6-yl)piperazin-1-yl)-2-(3-methyl-1H-1,2,4-triazol-5-yl)ethanone] is higher in pIC50: 6.00 to 6.70 for the first, > 6.70 for the second.

Going from `CCc1nn(C(C)C)c2cc(N3CCN(C(C)=O)[C@@H](Cc4ccccc4)C3)ccc12` [Compound 379, (S)-1-(2-benzyl-4-(3-ethyl-1-isopropyl-1H-indazol-6-yl)piperazin-1-yl)ethanone] to `CCc1nn(C2CCCC2)c2cc(N3CCN(C(=O)Cc4nc(C)n[nH]4)[C@@H](Cc4ccccc4)C3)ccc12` [Compound 380, (S)-1-(2-benzyl-4-(1-cyclopentyl-3-ethyl-1H-indazol-6-yl)piperazin-1-yl)-2-(3-methyl-1H-1,2,4-triazol-5-yl)ethanone], the pIC50 rises from < 6.00 to > 6.70. The second is the more potent here.
